Results taken from patent publication EP4600261A1, “KERATIN YK93-2, AND PREPARATION METHOD THEREFOR, PHARMACEUTICAL COMPOSITION THEREOF AND USE THEREOF” (INSTITUTE OF MATERIA MEDICA, CHINESE ACADEMY OF MEDICAL …, priority 2022, dated 2024).
Where a name gives a salt, the structure may show the parent alone.

Tested on: mouse pain model
Experiment: mouse pain model, acetic acid-induced writhing
Assay type: in vivo, Male Kunming mice
Conditions: Tramadol Hydrochloride 50mg/kg, 1% acetic acid intraperitoneally, writhing within 15 minutes
Procedure: • Animals: Male Kunming mice; • Drugs: Tramadol Hydrochloride Sustained Release Tablets, Glacial acetic acid, YK93-2; • Instruments: electronic balance, timer
• Normal control group; • Positive control group: Tramadol Hydrochloride group; • Protein YK93-2, (2g/kg) group.
Mice in the YK93-2 (2g/kg) group were administered by gavage, while mice in the model group were given an equal volume of CMC-Na once a day for 7 consecutive days. 30 minutes after the last administration, 1% acetic acid was administered intraperitoneally, and the writhing times of mice within 15 minutes was recorded, and the inhibition rate of drug-induced writhing reaction was calculated. The observation criteria were concave abdominal cavity, extended hind limbs, and raised buttocks.
The inhibition rate was calculated by (Mean number of writhing reactions in the normal control group - Mean number of writhing reactions in the treatment group)/Mean number of writhing reactions in the normal control group * 100%.

COc1cccc(C2(O)CCCCC2CN(C)C)c1 (stereo not shown) [Tramadol Hydrochloride]
Number of writhing: significantly reduced
